Results published in article PMC8037784 (Cancers, 2021).
Where “and” joins values, the source holds several entries; their conditions need not be identical. Identical values can stand only once.

Legend:
[1] = in vivo; parameters: species or system Sprague-Dawley rats; conditions: Sprague-Dawley, rat, po, 3 mg/kg
Procedure: The HPLC system consisted of a chromatographic pump (LC−20AT), an online injector (SIL−20C) equipped with a 10 μL sample loop to inject the sample, and an ultraviolet detector (SPD-M20A).
(§1) A freely moving rat model was designed for the current study. The rats were anesthetized and immobilized on a board while undergoing computed tomography to localize the whole liver or a central area measuring 1.5 cm × 1.5 cm for the SBRT technique. For the whole liver field, the cranial margin was set 5 mm from the top of the diaphragm, and the caudal margin was set 5 mm lower than the liver margin. The whole liver was targeted for irradiation. […] Data were collected from six rats per group.
A radiation dose of 2 Gy was considered the daily conventional EBRT dose or the off-target dose around the target that received an ablation RT dose. A dose of 9 Gy was used to simulate SBRT. […] Rats were initially anesthetized with pentobarbital (50 mg/kg, i.p.) and remained anesthetized throughout the experimental period. […]
PK parameters, including the area under the concentration–time curve (AUC), clearance (CL), elimination half-life (t1/2), volume of distribution at steady state (Vss), and mean residence time (MRT), were calculated using the PK calculation software WinNonlin Standard Edition, Version 1.1 (Scientific Consulting, Apex, NC, USA) by a compartmental method.

[2] = system: CYP3A4; conditions: cited from earlier work
[3] = Organ distribution of lenvatinib in rats with or without liver RT; type: in vivo, Sprague-Dawley rats; conditions: rat; for concentration at 6 h: Sprague-Dawley, po, 3 mg/kg; for concentration at 6 h / Concentration of lenvatinib in spleen: 6 h after administration
Description: as §1
A radiation dose of 2 Gy was considered the daily conventional EBRT dose or the off-target dose around the target that received an ablation RT dose. A dose of 9 Gy was used to simulate SBRT. […] Rats were initially anesthetized with pentobarbital (50 mg/kg, i.p.) and remained anesthetized throughout the experimental period. After surgery, the rats were placed in an experimental cage and allowed to recover for 1 day.
The brain, liver, heart, spleen, lung, and kidney were collected and weighed. These collected samples were stored at −20 °C until analysis.
The thawed organ samples were homogenized in 50% aqueous acetonitrile (the ratio of sample weight and volume was 1:5), and the homogenate was centrifuged at 13,000× g for 10 min at 4 °C. The supernatant was collected, placed in brown Eppendorf tubes, and stored at −20 °C until analysis. Briefly, each organ sample (50 μL) was combined with 150 μL of IS solution (diethylstilbestrol) for protein precipitation. Finally, 20 μL of filtrate was subjected to HPLC analysis.

[4] = RT2Gy concurrent with lenvatinib
[5] = RT9Gy concurrent with lenvatinib

**Q.** Which concentration at 60 min [1] does the source give for `COc1cc2nccc(Oc3ccc(NC(=O)NC4CC4)c(Cl)c3)c2cc1C(N)=O` [lenvatinib, Lenvatinib] here?
**A.** The concentration at 60 min was 940 ng/mL.

**Q.** And the Oxidative metabolism [2]?
**A.** Its Oxidative metabolism is “mediated primarily by CYP3A4”.

**Q.** And the concentration at 6 h ([3]; brain, Concentration of lenvatinib in brain, 3 mg/kg p.o., RT2Gy concurrent with lenvatinib)?
**A.** The concentration at 6 h was 0 ng/mL.

**Q.** And the concentration at 6 h ([3]; brain, Concentration of lenvatinib in brain, 3 mg/kg p.o., RT2Gy followed by lenvatinib)?
**A.** The concentration at 6 h was 0 ng/mL.

**Q.** What about the concentration at 6 h ([3]; brain, Concentration of lenvatinib in brain, 3 mg/kg p.o., RT9Gy concurrent with lenvatinib) of the same compound?
**A.** Its concentration at 6 h is 0 ng/mL.

**Q.** And the concentration at 6 h ([3]; brain, Concentration of lenvatinib in brain, 3 mg/kg p.o., RT9Gy followed by lenvatinib)?
**A.** Its concentration at 6 h is 0 ng/mL.

**Q.** What about the concentration at 6 h ([3]; brain, Concentration of lenvatinib in brain, 3 mg/kg p.o., lenvatinib only) of the same compound?
**A.** The concentration at 6 h was 0 ng/mL.

**Q.** What about the concentration at 6 h ([3]; heart, Concentration of lenvatinib in heart, 3 mg/kg p.o., RT2Gy concurrent with lenvatinib) of the same compound?
**A.** Its concentration at 6 h is 32 ± 40 ng/mL.

**Q.** And the concentration at 6 h ([3]; heart, Concentration of lenvatinib in heart, 3 mg/kg p.o., RT2Gy followed by lenvatinib)?
**A.** The concentration at 6 h was 74 ± 40 ng/mL.

**Q.** And the concentration at 6 h ([3]; heart, Concentration of lenvatinib in heart, 3 mg/kg p.o., RT9Gy concurrent with lenvatinib)?
**A.** The concentration at 6 h was 15 ± 40 ng/mL.

**Q.** And the concentration at 6 h ([3]; heart, Concentration of lenvatinib in heart, 3 mg/kg p.o., RT9Gy followed by lenvatinib)?
**A.** Its concentration at 6 h is 78 ± 40 ng/mL.

**Q.** What about the concentration at 6 h ([3]; heart, Concentration of lenvatinib in heart, 3 mg/kg p.o., lenvatinib only) of the same compound?
**A.** Its concentration at 6 h is 50 ± 50 ng/mL.

**Q.** What about the concentration at 6 h ([3]; kidney, Concentration of lenvatinib in kidney, 3 mg/kg p.o., RT2Gy concurrent with lenvatinib) of the same compound?
**A.** The concentration at 6 h was 113 ± 30 ng/mL.

**Q.** What about the concentration at 6 h ([3]; kidney, Concentration of lenvatinib in kidney, 3 mg/kg p.o., RT2Gy followed by lenvatinib) of the same compound?
**A.** The concentration at 6 h was 230 ± 50 ng/mL.

**Q.** And the concentration at 6 h ([3]; kidney, Concentration of lenvatinib in kidney, 3 mg/kg p.o., RT9Gy concurrent with lenvatinib)?
**A.** The concentration at 6 h was 129 ± 50 ng/mL.

**Q.** What about the concentration at 6 h ([3]; kidney, Concentration of lenvatinib in kidney, 3 mg/kg p.o., RT9Gy followed by lenvatinib) of the same compound?
**A.** The concentration at 6 h was 223 ± 50 ng/mL.

**Q.** And the concentration at 6 h ([3]; kidney, Concentration of lenvatinib in kidney, 3 mg/kg p.o., lenvatinib only)?
**A.** Its concentration at 6 h is 175 ± 50 ng/mL.

**Q.** And the concentration at 6 h ([3]; liver, Concentration of lenvatinib in liver, 3 mg/kg p.o., RT2Gy concurrent with lenvatinib)?
**A.** The concentration at 6 h was 72 ± 60 ng/mL.

**Q.** What about the concentration at 6 h ([3]; liver, Concentration of lenvatinib in liver, 3 mg/kg p.o., RT2Gy followed by lenvatinib) of the same compound?
**A.** The concentration at 6 h was 158 ± 90 ng/mL.

**Q.** What about the concentration at 6 h ([3]; liver, Concentration of lenvatinib in liver, 3 mg/kg p.o., RT9Gy concurrent with lenvatinib) of the same compound?
**A.** Its concentration at 6 h is 93 ± 50 ng/mL.

**Q.** And the concentration at 6 h ([3]; liver, Concentration of lenvatinib in liver, 3 mg/kg p.o., RT9Gy followed by lenvatinib)?
**A.** Its concentration at 6 h is 161 ± 70 ng/mL.

**Q.** What about the concentration at 6 h ([3]; liver, Concentration of lenvatinib in liver, 3 mg/kg p.o., lenvatinib only) of the same compound?
**A.** The concentration at 6 h was 104 ± 50 ng/mL.

**Q.** And the concentration at 6 h ([3]; lung, Concentration of lenvatinib in lung, 3 mg/kg p.o., RT2Gy concurrent with lenvatinib)?
**A.** The concentration at 6 h was 33 ± 40 ng/mL.

**Q.** And the concentration at 6 h ([3]; lung, Concentration of lenvatinib in lung, 3 mg/kg p.o., RT2Gy followed by lenvatinib)?
**A.** The concentration at 6 h was 92 ± 30 ng/mL.

**Q.** And the concentration at 6 h ([3]; lung, Concentration of lenvatinib in lung, 3 mg/kg p.o., RT9Gy concurrent with lenvatinib)?
**A.** The concentration at 6 h was 42 ± 50 ng/mL.

**Q.** And the concentration at 6 h ([3]; lung, Concentration of lenvatinib in lung, 3 mg/kg p.o., RT9Gy followed by lenvatinib)?
**A.** The concentration at 6 h was 75 ± 30 ng/mL.

**Q.** And the concentration at 6 h ([3]; lung, Concentration of lenvatinib in lung, 3 mg/kg p.o., lenvatinib only)?
**A.** Its concentration at 6 h is 108 ± 40 ng/mL.

**Q.** And the concentration at 6 h ([3]; spleen, Concentration of lenvatinib in spleen, 3 mg/kg p.o., RT2Gy followed by lenvatinib)?
**A.** The concentration at 6 h was 73 ± 40 ng/mL.

**Q.** And the concentration at 6 h ([3]; spleen, Concentration of lenvatinib in spleen, 3 mg/kg p.o., RT9Gy followed by lenvatinib)?
**A.** The concentration at 6 h was 60 ± 60 ng/mL.

**Q.** And the concentration at 6 h ([3]; spleen, Concentration of lenvatinib in spleen, 3 mg/kg p.o., lenvatinib only)?
**A.** Its concentration at 6 h is 30 ± 50 ng/mL.

**Q.** And the “Concentration of lenvatinib in spleen” value ([3]; 3 mg/kg p.o., RT2Gy concurrent with lenvatinib)?
**A.** The value was 0 ng/mL.

**Q.** And the “Concentration of lenvatinib in spleen” value ([3]; 3 mg/kg p.o., RT9Gy concurrent with lenvatinib)?
**A.** Its value is 0 ng/mL.

**Q.** And the “Detection of lenvatinib in the brain” value ([3]; 3 mg/kg p.o., with or without RT)?
**A.** Its value is “not detected”.

**Q.** And the “Heart concentration decreased compared with the sham group” value [3, 4]?
**A.** Its value is 36.0%.

**Q.** What about the “Kidney concentration decreased compared with the sham group” value [3, 4] of the same compound?
**A.** The value was 35.4%.

**Q.** What about the “Liver concentration decreased compared with the sham group” value [3, 4] of the same compound?
**A.** Its value is 30.8%.

**Q.** And the “Lung concentration decreased compared with the sham group” value (“Lung concentration decreased” below) [3, 4]?
**A.** The value was 69.4%.

**Q.** And the “Spleen concentration decreased compared with the sham group” value [3, 4]?
**A.** Its value is 100.0%.

**Q.** And the “Heart concentration increased compared with the sham group” value ([3]; RT2Gy followed by lenvatinib)?
**A.** The value was 48.0%.

**Q.** And the “Kidney concentration increased compared with the sham group” value ([3]; RT2Gy followed by lenvatinib)?
**A.** The value was 31.4%.

**Q.** And the “Liver concentration increased compared with the sham group” value ([3]; RT2Gy followed by lenvatinib)?
**A.** Its value is 51.9%.

**Q.** What about the “Lung concentration decreased” value ([3]; RT2Gy followed by lenvatinib) of the same compound?
**A.** The value was 15% and 14.8%.

**Q.** What about the “Spleen concentration increased compared with the sham group” value ([3]; RT2Gy followed by lenvatinib) of the same compound?
**A.** The value was 143.3%.

**Q.** What about the “Heart concentration decreased compared with the sham group” value [3, 5] of the same compound?
**A.** Its value is 70.0%.

**Q.** What about the “Kidney concentration decreased compared with the sham group” value [3, 5] of the same compound?
**A.** Its value is 26.2%.

**Q.** And the “Liver concentration decreased compared with the sham group” value [3, 5]?
**A.** Its value is 10.6%.

**Q.** What about the “Lung concentration decreased” value [3, 5] of the same compound?
**A.** The value was 61.1%.

**Q.** What about the “Spleen concentration decreased compared with the sham group” value [3, 5] of the same compound?
**A.** Its value is 100%.

**Q.** And the “Heart concentration increased compared with the sham group” value ([3]; RT9Gy followed by lenvatinib)?
**A.** The value was 56.0%.

**Q.** And the “Kidney concentration increased compared with the sham group” value ([3]; RT9Gy followed by lenvatinib)?
**A.** Its value is 27.4%.

**Q.** And the “Liver concentration increased compared with the sham group” value ([3]; RT9Gy followed by lenvatinib)?
**A.** The value was 54.8%.

**Q.** What about the “Lung concentration decreased” value ([3]; RT9Gy followed by lenvatinib) of the same compound?
**A.** Its value is 31% and 30.6%.

**Q.** And the “Spleen concentration increased compared with the sham group” value ([3]; RT9Gy followed by lenvatinib)?
**A.** The value was 100%.

**Q.** And the “Increase of concentration in the heart” value ([3]; sequential RT regimen)?
**A.** Its value is 50%.

**Q.** What about the “Increase of concentration in the kidneys” value ([3]; sequential RT regimen) of the same compound?
**A.** Its value is 30%.

**Q.** And the “Increase of concentration in the liver” value ([3]; sequential RT regimen)?
**A.** The value was 50%.

**Q.** And the “Increase of concentration in the spleen” value ([3]; sequential regimen)?
**A.** The value was “more than 100%”.
